Results reported in PMC10692721, “Drug discovery for heart failure targeting myosin-binding protein C” (The Journal of Biological Chemistry, 2023).

Legend:
TMR-cC0-C2 = assay: Selleck library HTS, 532 nm excitation (FLT of TMR-cC0-C2 in presence of FMAL-actin); format: binding, human; conditions: for 532-nm Δτ, Repeat 1 / 532-nm Δτ, Repeat 2: initial screen, 30 μM compound; for 532-nm z-score (based on avg Δτ): robust z-score, hit threshold ±4, 30 μM compound
Procedure: (§1) Fluorescence lifetime (FLT) measurements were acquired using a high-throughput FLT plate reader (Fluorescence Innovations, Inc) ([14], [27]), provided by Photonic Pharma LLC. […] The observed waveforms were analyzed as described previously ([15], [28]).
(§2) In total, 50 nl of each solution was dispensed in DMSO using an automated Echo 550 acoustic liquid dispenser (Labcyte). Compounds were formatted into the assay plates, at a final concentration of 30 μM, with the first two and second to last columns loaded with DMSO only (compound-free controls). In the final column, 30 μM of suramin was loaded as a positive control (tool compound). These assay plates were then heat-sealed using a PlateLoc Thermal Microplate Sealer (Agilent Technologies) and stored at −20 °C. Before screening, compound plates were equilibrated to room temperature (∼25 °C). […] Plates were incubated at room temperature for 60 min before recording the data with the fluorescence lifetime plate reader.
Hits that exceeded the z-score hit criteria in the donor-only screen were excluded from consideration. To remove compounds with confounding fluorescence properties, a similarity index (SI, specifically the cosine distance, Equation 5) was computed using data from the SUPR instrument by comparing a region (500–540 nm) of the donor-only spectrum (I^(a)) for each well to that of the plate-wide average DMSO spectrum (I^(b)) in the same wavelength band ([29]). Compounds that exceeded an SI robust z-score of 4 were deemed likely fluorescent compounds and removed from consideration.(5) SI=1−∑Ii(a).Ii(b)/∑Ii(a).Ii(a)∑Ii(b).Ii(b)

[1] = system: FMAL-actin plus TMR-cC0-C2; assay: Selleck library HTS, 473 nm excitation (FLT of FMAL-actin with TMR-cC0-C2, FLT-FRET); format: binding, human; conditions: for 473-nm Δτ, Repeat 1 / 473-nm Δτ, Repeat 2: initial screen, 30 μM compound; for 473-nm z-score (based on avg Δτ): robust z-score, hit threshold ±4, 30 μM compound
Procedure: as §1, §2
After fitting the waveforms with a single exponential decay to quantify donor FLT, the change in FLT (Δτ) was computed by performing a moving median subtraction in the order the plate was scanned with a window size of half a plate row […]. The reasons for this are twofold. Firstly, plate gradients are often observed due to the heating of the digitizer during acquisition.
To account for the necessity to correct for plate gradients in the computation of E, the median τDMSO prior to the application of the moving median correction was added to each well’s Δτ value to recover a rescaled value of τ.

[2] = system: TMR-cC0-C2 (C0-C2 fragment of human cMyBP-C); assay: FLT-TMR concentration-response assay (FLT of TMR on cC0-C2, no actin); format: binding; conditions: 60 μM compound
Procedure: Compounds identified as initial hits were further examined to determine the concentration–response curves for seven conditions ([1]): FMAL-actin alone identified actin-binding compounds that alter the FLT of FMAL-actin ([2]).
as §1
The primary hits were dissolved in DMSO to make a 10 mM stock solution, which was serially diluted in 96-well mother plates. Hits were screened at eight concentrations (0.5–100 μM). […] Compounds (1 μl) were transferred from the mother plates into 384-well plates using a Mosquito HV liquid handler (TTP Labtech Ltd, Hertfordshire, UK). The same procedure of dispensing as for the pilot screening was applied in the concentration-response assays. Concentration dependence of the FLT-FRET (E/EDMSO) or FLT-TMR (Δτ) change data was fit to a Hill equation only under certain conditions to help guide the eye (Fig. 4).

| Compound | 532-nm Δτ, Repeat 1 (TMR-cC0-C2) [ns] | 532-nm Δτ, Repeat 2 (TMR-cC0-C2) [ns] | 532-nm z-score (based on avg Δτ) (TMR-cC0-C2) | 473-nm Δτ, Repeat 1 [1] [ns] | 473-nm Δτ, Repeat 2 [1] [ns] | 473-nm z-score (based on avg Δτ) [1] | cC0-C2 FLT change (% change from DMSO, FLT of TMR-MyBP-C) [2] [%] |
| --- | --- | --- | --- | --- | --- | --- | --- |
| C[C@H](CCC(=O)O)[C@H]1CC[C@H]2[C@@H]3C[C@H](O)[C@@H]4C[C@H](O)CC[C@]4(C)[C@H]3CC[C@]12C [Hyodeoxycholic acid (HDCA), Hyodeoxycholic acid] | -0.021 | -0.120 | -4.27 | 0.111 | 0.072 | 5.17 | – |
| CC1=NN(c2ccc(C)c(C)c2)C(=O)/C1=N\Nc1cccc(-c2cccc(C(=O)O)c2)c1O [Eltrombopag olamine] | -0.267 | -0.418 | -20.87 | 0.270 | 0.162 | 12.13 | – |
| CC1(C)S[C@@H]2[C@H](NC(=O)[C@H](N)c3ccccc3)C(=O)N2[C@H]1C(=O)O [Ampicillin sodium] | 0.003 | 0.007 | 0.34 | 0.184 | 0.161 | 9.70 | – |
| CN(C)[C@@H]1C(O)=C(C(N)=O)C(=O)[C@@]2(O)C(O)=C3C(=O)c4c(O)cccc4[C@@](C)(O)[C@H]3[C@H](O)[C@@H]12 [Oxytetracycline (Terramycin), Oxytetracycline] | -0.019 | -0.057 | -2.29 | 0.175 | 0.122 | 8.34 | – |
| COc1ccc(CN(CCN(C)C)c2ncccn2)cc1 [Thonzylamine] | -0.034 | -0.382 | -12.66 | 0.012 | -0.449 | -12.17 | – |
| CCCCCCCCCCCCCCCC(=O)O[C@@H]1[C@@H](O)[C@@H](O)[C@@H]([C@H](NC(=O)[C@@H]2C[C@@H](CCC)CN2C)[C@H](C)Cl)O[C@@H]1SC.Cl [Clindamycin palmitate HCl] | -0.075 | -0.094 | -5.12 | -0.304 | -0.358 | -18.47 | −12.7 |
| CNC(=O)c1cc(Oc2ccc(NC(=O)Nc3ccc(Cl)c(C(F)(F)F)c3)c(F)c2)ccn1 [Regorafenib (BAY 73-4506), Regorafenib] | 0.099 | 0.102 | 6.17 | -0.029 | -0.026 | -1.50 | – |
| CC1(C)[C@@H](O[C@H]2O[C@H](C(=O)O)[C@@H](O)[C@H](O)[C@H]2O[C@@H]2O[C@H](C(=O)O)[C@@H](O)[C@H](O)[C@H]2O)CC[C@]2(C)[C@H]3C(=O)C=C4[C@@H]5C[C@@](C)(C(=O)O)CC[C@]5(C)CC[C@@]4(C)[C@]3(C)CC[C@@H]12.N.N [Diammonium glycyrrhizinate] | 0.022 | 0.017 | 1.22 | 0.077 | 0.080 | 4.42 | – |
| Nc1ccc2cc3ccc(N)cc3nc2c1 [Proflavine hemisulfate] | -0.016 | -0.080 | -2.91 | 0.430 | 0.337 | 21.48 | – |
| CONC(=O)Nc1ccc(-c2sc3c(c2CN(C)C)c(=O)n(-c2ccc(OC)nn2)c(=O)n3Cc2c(F)cccc2F)cc1 [Relugolix] | -0.169 | -0.015 | -5.58 | 0.366 | -0.004 | 10.15 | – |
| O=c1cc(-c2ccc(O)c(O)c2)oc2cc(O)cc(O)c12 [Luteolin] | -0.277 | -0.302 | -17.63 | -0.309 | -0.214 | -14.58 | – |
| O=C(c1ccc(OCCN2CCCCC2)cc1)c1c(-c2ccc(O)cc2)sc2cc(O)ccc12 [Raloxifene] | -0.025 | -0.147 | -5.22 | -0.490 | -0.307 | -22.27 | – |
| C[n+]1cc2c3c(ccc2c2ccc4cc5c(cc4c21)OCO5)OCO3 [Sanguinarine chloride] | -0.160 | -0.020 | -5.46 | -0.105 | -0.086 | -5.31 | – |
| CCC(=O)c1c(O)cc(O)cc1O [Flopropione] | -0.062 | -0.073 | -4.10 | -0.335 | -0.210 | -15.21 | – |
| C=CC1=C(C)c2cc3[nH]c(cc4nc(cc5[nH]c(cc1n2)c(C)c5CCC(=O)O)C(CCC(=O)O)=C4C)c(C)c3C=C [Protoporphyrin IX] | 0.067 | 0.016 | 2.58 | 0.144 | 0.076 | 6.21 | – |
| CO[C@@]1(NC(=O)C(C(=O)O)c2ccc(O)cc2)C(=O)N2C(C(=O)O)=C(CSc3nnnn3C)CO[C@@H]21 (stereo partly shown) [Latamoxef sodium] | -0.050 | -0.037 | -2.62 | 0.128 | 0.049 | 4.99 | – |
| Cc1ccc(NC(=O)c2ccc(CN3CCN(C)CC3)cc2)cc1Nc1nc(-c2cccnc2)cs1 [Masitinib (AB1010), Masitinib] | -0.071 | -0.082 | -4.66 | -0.336 | -0.197 | -14.87 | – |
| CCOC(=O)[C@@H](N)Cc1ccc(-c2cc(O[C@H](c3ccc(Cl)cc3-n3ccc(C)n3)C(F)(F)F)nc(N)n2)cc1 [Telotristat etiprate (LX 1606 Hippurate), Telotristat etiprate] | 0.064 | 0.093 | 4.83 | -0.136 | -0.122 | -7.19 | – |
| CN1CCCN=C1/C=C/c1cccs1 [Pyrantel pamoate] | -0.043 | -0.100 | -4.32 | 0.313 | 0.250 | 15.79 | – |
| O=C(O)c1cc(/N=N/c2ccc(O)c(C(=O)O)c2)ccc1O [Olsalazine Sodium] | -0.057 | -0.123 | -5.46 | 0.202 | 0.096 | 8.38 | – |
| COc1cc2nc(N3CCN(C(=O)C4COc5ccccc5O4)CC3)nc(N)c2cc1OC (stereo not shown) [Doxazosin] | 0.125 | 0.126 | 7.70 | -0.266 | -0.231 | -13.87 | – |
| Heparin sodium | -0.052 | -0.051 | -3.09 | 0.440 | 0.363 | 22.49 | – |
